Assay results taken from PMC10889512, “Pyrimidine Schiff Bases: Synthesis, Structural Characterization and Recent Studies on Biological Activities” (International Journal of Molecular Sciences, 2024).

What was measured:
P. aeruginosa 27853 = test: Antimicrobial activity assay, microdilution; assay type: cell-based, Pseudomonas aeruginosa; settings: concentration range from 0.5 µg/mL to 256 µg/mL
Description: (§1) In vitro antimicrobial and antifungal activity was screened using microdilution and modified Richard’s medium. The assay was performed for compounds 4a, 4b, 4c, and 4d with seven reference microbial strains from ATTC (E. coli 25922, S. aureus 43300, K. pneumoniae 700603, A. baumannii 19606, P. aeruginosa 27853, E. faecalis 29212, and C. albicans 10231).
(§2) Seven reference strains from the ATCC collection (Escherichia coli 25922, Staphylococcus aureus 43300, Klebsiella pneumoniae 13883, Acinetobacter baumannii 19606, Pseudomonas aeruginosa 27853, Enterococcus faecalis 29212, and Candida albicans 10231) were used. The assay was performed according to a modified version of Richard et al.’s protocol and ISO standards 20776-1:2019 and 16256:2021 [78, 79]. Microdilution with spectrophotometric measurement was used to calculate MIC50 (minimal inhibitory concentration which decreased the microorganisms’ viability to 50%) values. Briefly, compounds were prepared 100× concentrated in DMSO, and during the whole experiment, they were diluted to 1× with TSB. Serial dilutions of tested compounds were made directly on plates at a concentration range of 0.5 to 256 µg/mL. Microorganisms were incubated for 24 h at 37 °C (bacteria) or 25 °C (yeast) on Petri dishes with TSA. The bacteria/yeast suspensions were prepared at a density 5 × 10^5 CFU/mL (for bacteria) or 0.5–2.5 × 10^5 CFU/mL (for yeast) with TSB. Also, appropriate controls were contained in the experiment: the positive control consisted of a specific strain in TSB, and the negative control was TSB alone. To ensure that used strains were not modified and were still responding to antibacterial/antifungal compounds established by EUCAST, additional tests were conducted with levofloxacin, gentamicin, and amphotericin B. Microplates were incubated on a shaker for 24 h at 37 ± 1 °C or 25 ± 1 °C for the bacteria and yeast strains, respectively. After the incubation, spectrophotometric measurement was performed at 580 nm. MIC50 was calculated by comparing the results obtained for experimental sets with positive controls. Next, 50 µL aliquots of 1% (m/v) TTC solution were added to each well. The plates were incubated on the shaker for 24 h at 37/25 °C. In living microbial cells, colourless TTC is converted into red formazan crystals, which allows for visual observation and MBC/MFC (minimal bactericidal/fungicidal concentration) value assessment.

HepG2 = test: Neutral red uptake assay on HepG2; assay type: cell-based; settings: Homo sapiens; HepG2, 72 h treatment
Description: (§3) Based on the results obtained for the RPTEC cell line, the following concentrations of 4b–d were chosen to be applied to neoplastic cell lines: 0.1, 1, 10, 25, 50, and 100 µM. A172, AGS, CaCo-2, HeLa, and HepG2 cancer cell lines were used to perform a neutral red uptake assay. The obtained results were compared with a negative control (cell lines incubated without tested compounds), and half-maximal inhibitory concentration (IC50) values were calculated. Cell lines were plated in 96-well plates at a density of 1 × 10^4 cells/well. After 24 h incubation, which allowed the cells to attach and start to proliferate, the culture media were replaced with 4a–d dissolved in the appropriate medium at concentrations of 1, 10, 50, 100, 150 and 200 µM. […] Negative (1% DMSO in medium) and positive (1 µM staurosporine) controls were also included. Plates were incubated at 37 °C for 24, 48, and 72 h before the neutral red uptake assay. The neutral red uptake assay was performed as described by Repetto et al.. Briefly, the medium from all wells was discarded, the attached cells were washed with 100 µL PBS, and then 100 µL of neutral red working solution in medium (40 µg/mL) was added to each well. The neutral red solution was incubated overnight in the same conditions as the cells and centrifuged before being added to the cells. The plates were incubated for at least 2 h at 37 °C, 5% CO2, in a humidified atmosphere. Next, the neutral red medium was removed, and the cells were washed with 100 µL PBS. A 100 µL quantity of destain solution consisting of 50% ethanol, 1% glacial acetic acid, and deionized water was added to each well. Plates were incubated for 30 min with constant shaking on a horizontal shaker at 37 °C. Absorption was measured at 540 nm excitation. The cells’ viability was calculated by comparing results from experimental sets with negative controls according to the formula: % viability=ODtest substance−ODblind/ODnegative control−ODblind×100

A. baumannii 19606 = test: Antimicrobial activity assay, microdilution; assay type: cell-based, Acinetobacter baumannii; settings: concentration range from 0.5 µg/mL to 256 µg/mL
Description: as §1, §2

HeLa = test: Neutral red uptake assay on HeLa; assay type: cell-based; settings: Homo sapiens, 72 h treatment
Description: as §3

AGS cells = test: Flow cytometry annexin V/PI staining, cell death pathway, AGS; assay type: cell-based, human; settings: at IC50, 6, 18 and 24 h
Description: To confirm the cell death pathway, another approach to flow cytometry was used. […] Annexin V is a specific PS-binding protein, and thus it is used to detect apoptotic cells. Very few events could be observed in the first and the second quadrant, which represent apoptotic cells. Most events occurred in the third and the fourth quadrant, where unstained and necrotic cells were located. The 24 h measurements after both flow cytometry approaches were consistent with each other. […] Two approaches for flow cytometry were used—FDA/PI staining to determine cell viability and annexin V/PI staining for cell death pathway determination. For cell death pathway determination, cells were plated in 6-well plates at a density of 3 × 10^5 cells/well. […] After 6, 18, and 24 h incubation, adhered and floating cells were harvested, centrifuged at 1600 rpm, and washed with PBS. Next, the cells were washed with 1× annexin-binding buffer, and after centrifugation, cells from each test set were suspended in 100 µL of 1× annexin-binding buffer. To each tube, 5 µL of Alexa Fluor 488-annexin V stain was added, and the cells were incubated in the dark. After 15 min incubation, the cells were centrifuged at 1600 rpm to remove the dye, then suspended in 1 mL of 1× binding buffer and kept on ice. Prior to analysis, cells were stained for 2 min with 1 µM PI. […]

Cc1nc(-c2ccccc2)nc(Nc2ccc(F)cc2)c1C=Nc1cccc(Cl)c1 [compound 4b, 5-{[(3-chlorophenyl)imino]methyl}-N-(4-fluorophenyl)-6-methyl-2-phenylpyrimidin-4-amine]
MIC and MBC/MFC activity (P. aeruginosa 27853): Neither MIC nor MBC/MFC activity was observed
IC50 (HepG2): > 100 µM
MIC and MBC/MFC activity (A. baumannii 19606): Neither MIC nor MBC/MFC activity was observed
IC50 (HeLa): > 100 µM
cell death pathway (AGS cells): irreversible cell injury and necrosis
